Source: patent US7618790B2, “Method for NGF assay for in vitro diagnosis of breast cancer and therapeutic use” (Biomerieux, priority 2002, dated 2009)

Experiments:
PC12 cells = test: Coculture of NGF-sensitive PC12 cells with MCF-7 breast cancer cells (neurite differentiation); assay type: cell-based
Protocol: To do this, cells which develop in the presence of NGF, i.e. PC12 cells, were cocultured with MCF-7 breast cancer cells, as described in point 1.1 above, or else with NBEC cells, as described in point 1.1 above, as a control.
The PC12 cells were cultured beforehand at 37° C. in a 5% CO2 atmosphere, in Dulbecco's modified minimum essential medium (DMEM) supplemented with 3 g/l of sodium bicarbonate, 4 mM of L-glutamine, 10% of fetal calf serum, 5% of horse serum and 100 units/ml of penicillin/streptomycin.
The coculturing was carried out with Transwell® tissue culture-treated polycarbonate plates (12 mm in diameter and 12 μm pore size). An initial equilibrating period was observed by adding the media to the central well of the plate, and then to the Transwell® insert, which operation was followed by incubation at 37° C. for 3 h.
The PC12 cells were seeded in 12-well plates coated with collagen for 24 h in order to ensure correct attachment to the culture plates. The MCF-7 or NCBE cells were seeded inside the Transwell® insert, corresponding to the upper compartment, in the complete medium for 24 h. After this time, each cell line was rinsed three times with serum-free medium and was incubated in a withdrawal medium. […] The percentage of cells bearing neurites, defined as cells with one or more neurite extensions twice the length of the cell body, was counted. […]

MCF-7 cells = test: Growth of MCF-7 cancer cells (cell count with hemocytometer); assay type: cell-based, human; settings: serum-free basic medium, 24-72 h, FIG. 4A
Protocol: The effect of the blocking antibody MAB-256 (above) and of the inhibitor K-252a on the growth of MCF-7 cells was studied. To do this, the cells were seeded in a proportion of 2×10^4 cells/ml in 35 mm dishes in complete medium. After having reached 40% confluency, the cells were washed twice and were left without nutrients in a serum-free medium containing fibronectin (2 μg/ml) and transferrin (30 μg/ml) for 3 h. The following hour, the medium was replaced with 2 ml of the same medium containing the inhibitor K-252a or the antibody […] at various concentrations in order to study the effect of the pharmacological inhibitor or of the blocking inhibitor on the base line growth level. After treatment for 24, 36, 48 and 72 h, the number of cells was determined, after trypsinization of the monolayer culture with a solution of 0.25% trypsin/EDTA, using a hemocytometer. An anti-mouse monoclonal antibody ([…], Sigma), i.e. an irrelevant antibody, was also used in order to determine the specificity of the blocking antibody.

| Compound | PC12 cell differentiation (cells bearing neurites) (PC12 cells; coculture of MCF-7 and PC12 cells, 48 h, FIG. 2B) | growth of the MCF-7 cells (number of cells) (MCF-7 cells) | PC12 cell differentiation (neurite development) (PC12 cells; culture of PC12 cells alone as a control, in the presence of NGF, FIG. 2B photograph 3) |
| --- | --- | --- | --- |
| COC(=O)[C@@]1(O)C[C@H]2O[C@]1(C)n1c3ccccc3c3c4c(c5c6ccccc6n2c5c31)C(=O)NC4 [K-252a] | strong inhibition of the PC12 cell differentiation | decreases |  |
| NGF: nerve growth factor added to the medium as positive control for PC12 differentiation |  |  | neurite development due to differentiation is observed |
